Measurements: ChEMBL document CHEMBL5357056, “Precursor-Directed Biosynthesis of Antialgal Fluorinated Bacillamide Derivatives in Bacillus atrophaeus” (J Nat Prod, 2024)

Experiments:
[1] = system: Karenia brevis; assay: Anti-phytoplankton activity against Karenia brevis assessed as change in chlorophyll a level measured after 72 hrs by fluorescence based analysis; format: functional, organism-based
[2] = Anti-phytoplankton activity against Skeletonema grethae assessed as reduction in chlorophyll a level measured after 72 hrs by fluorescence based analysis; format: functional, organism-based

SMILES	IC50 [1] [µM]	IC50 [2] [µM]
N#Cc1c(-c2ccc(Cl)cc2)[nH]c(C(F)(F)F)c1Br	1.35	13.1
CC(=O)NCCc1c[nH]c2ccccc12	> 200	> 200
CC(=O)N[C@H](C)c1nc(C(=O)NCCc2c[nH]c3ccc(F)cc23)cs1	> 200	> 200
CC(=O)c1nc(C(=O)NCCc2c[nH]c3ccccc23)cs1 [BACILLAMIDE A]	> 200	> 200
CC(=O)N[C@H](C)c1nc(C(=O)NCCc2c[nH]c3ccccc23)cs1 [BACILLAMIDE C]	> 200	> 200
C[C@@H]1C[C@@H]([C@H](O)CC2CC(=O)NC(=O)C2)C(=O)[C@@H](C)C1 [CYCLOHEXIMIDE]	0.55	0.5

The remaining lines, values ahead:

IC50 [1] [µM]	IC50 [2] [µM]	SMILES
> 200	> 200	CC(=O)NCCc1c[nH]c2cccc(F)c12
> 200	> 200	CC(=O)N[C@H](C)c1nc(C(=O)NCCc2c[nH]c3cccc(F)c23)cs1
28.7	> 200	CC(=O)N[C@H](C)c1nc(C(=O)NCCc2c[nH]c3cc(F)ccc23)cs1
> 200	> 200	CC(=O)c1nc(C(=O)NCCc2c[nH]c3cccc(F)c23)cs1
186	> 200	CC(=O)c1nc(C(=O)NCCc2c[nH]c3ccc(F)cc23)cs1
107	> 200	CC(=O)c1nc(C(=O)NCCc2c[nH]c3cc(F)ccc23)cs1
